For 26 compounds, Ki, Activity and IC50 results are on record in ChEMBL document CHEMBL1212877, “Multipotent drugs with cholinergic and neuroprotective properties for the treatment of Alzheimer and neuronal vascular diseases. I. Synthesis, biological assessment, and molecular modeling of simple and readily available 2-aminopyridine-, and 2-chloropyridine-3,5-dicarbonitriles” (Bioorg Med Chem, 2010).

Test [1] has as its target T1, Acetylcholinesterase (Electrophorus electricus, UniProt O42275). As to the kind of experiment: Binding affinity to Electrophorus electricus AChE peripheral anionic site.
Test [2] concerns SH-SY5Y. As to the kind of experiment: Neuroprotective activity in human SH-SY5Y cells assessed as protection against rotenone/oligomycin-A-induced cell death at 1 uM after 24 hrs by MTT assay relative to control. The format is functional.
Test [3] concerns the target T1, Acetylcholinesterase. The experiment in a line: Inhibition of Electrophorus electricus AChE after 10 mins by Ellman's method.
A further test addresses Butyrylcholinesterase (Equus caballus, UniProt Q9N1N9). The experiment in a line: Inhibition of equine serum BuChE after 10 mins by Ellman's method.
Test [4] relates to SH-SY5Y. The experiment in a line: Neuroprotective activity in human SH-SY5Y cells assessed as protection against rotenone/oligomycin-A-induced cell death at 1 uM after 24 hrs by LDH release assay relative to control. The format is functional.
In test [5] the target is T1, Acetylcholinesterase. The experiment in a line: Non competitive inhibition of Electrophorus electricus AChE by Lineweaver-Burke plot analysis.

Where “and” joins values, the source holds several entries; their conditions need not be identical. Identical values can stand only once.

T1 sequence (O42275 whole entry): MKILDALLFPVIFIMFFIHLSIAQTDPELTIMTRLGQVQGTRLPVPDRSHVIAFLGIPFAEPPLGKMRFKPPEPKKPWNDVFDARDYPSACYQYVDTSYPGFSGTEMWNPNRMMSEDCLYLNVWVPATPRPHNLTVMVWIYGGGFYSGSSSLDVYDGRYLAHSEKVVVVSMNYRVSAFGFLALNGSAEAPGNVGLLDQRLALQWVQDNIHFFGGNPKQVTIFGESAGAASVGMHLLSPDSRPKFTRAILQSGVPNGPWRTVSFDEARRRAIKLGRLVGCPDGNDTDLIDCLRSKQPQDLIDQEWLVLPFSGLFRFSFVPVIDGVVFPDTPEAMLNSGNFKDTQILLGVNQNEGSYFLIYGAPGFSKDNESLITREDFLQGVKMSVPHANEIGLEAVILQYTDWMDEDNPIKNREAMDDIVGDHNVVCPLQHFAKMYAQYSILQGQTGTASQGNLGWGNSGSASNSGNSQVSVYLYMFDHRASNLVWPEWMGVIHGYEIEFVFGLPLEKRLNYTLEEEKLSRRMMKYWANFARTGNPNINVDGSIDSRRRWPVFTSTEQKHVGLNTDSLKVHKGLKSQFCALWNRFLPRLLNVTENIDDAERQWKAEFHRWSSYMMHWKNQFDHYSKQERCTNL
Sequence of Butyrylcholinesterase (Q9N1N9 whole entry): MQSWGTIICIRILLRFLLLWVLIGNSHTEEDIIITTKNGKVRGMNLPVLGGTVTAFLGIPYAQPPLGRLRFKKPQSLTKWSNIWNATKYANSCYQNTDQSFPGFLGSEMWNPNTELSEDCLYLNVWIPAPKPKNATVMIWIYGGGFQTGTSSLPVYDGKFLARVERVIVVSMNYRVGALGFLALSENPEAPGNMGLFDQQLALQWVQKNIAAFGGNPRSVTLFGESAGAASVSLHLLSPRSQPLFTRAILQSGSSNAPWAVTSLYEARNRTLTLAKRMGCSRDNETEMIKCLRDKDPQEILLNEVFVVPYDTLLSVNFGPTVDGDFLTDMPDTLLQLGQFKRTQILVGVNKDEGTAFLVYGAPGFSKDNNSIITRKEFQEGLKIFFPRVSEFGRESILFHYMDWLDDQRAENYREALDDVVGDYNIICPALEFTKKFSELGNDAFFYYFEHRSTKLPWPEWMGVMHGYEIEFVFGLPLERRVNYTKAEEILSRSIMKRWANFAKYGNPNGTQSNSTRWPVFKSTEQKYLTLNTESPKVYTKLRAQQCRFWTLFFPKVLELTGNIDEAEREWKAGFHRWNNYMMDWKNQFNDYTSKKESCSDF

With `CC[N+](C)(CC)CCC[n+]1c(-c2ccccc2)c2cc(N)ccc2c2ccc(N)cc21` [PROPIDIUM], at Acetylcholinesterase [1], the Ki was 8.6 µM and 8.9 µM.

`N#Cc1cc(C#N)c(N2CCC(Cc3ccccc3)CC2)nc1N`: the Activity in the test with SH-SY5Y [2] worked out at 19.1%. In addition, the IC50 on Acetylcholinesterase [3] and at Butyrylcholinesterase was greater than 100 µM each time.

Regarding `N#Cc1cc(C#N)c(N2CCCC2)nc1Cl`, the results for the Activity in the test with SH-SY5Y [2] and with SH-SY5Y [4] were 7.5% and 32%, respectively. Also, the IC50 at Acetylcholinesterase [3] was 0.8 µM; on Butyrylcholinesterase, greater than 100 µM.

For the compound `COc1nc(N)c(C#N)cc1C#N`, the Activity in the test with SH-SY5Y [2] is recorded as 11%. Besides, the IC50 against Acetylcholinesterase [3] and against Butyrylcholinesterase was greater than 100 µM in each case.

With `CN(C)c1nc(N)c(C#N)cc1C#N`, the values for the Activity in the test with SH-SY5Y [2] and with SH-SY5Y [4] were 12.9% and 36.2%, respectively. The IC50 against Acetylcholinesterase [3] is 22.7 µM; on Butyrylcholinesterase, greater than 100 µM.

Consider `N#Cc1c(Cl)nc(N2CCCC2)c(C#N)c1-c1ccccc1`, for which the Activity came to 7.5% in the test on SH-SY5Y [2] and 37.7% in the test with SH-SY5Y [4]. The half-maximal inhibitory concentration (IC50) against Acetylcholinesterase [3] was 5.6 µM; against Butyrylcholinesterase, greater than 100 µM.

Consider `N#Cc1cc(C#N)c(OCCCc2ccccc2)nc1N`, for which, in the test on SH-SY5Y [2], the Activity was found to be 0%. For the same compound, the half-inhibitory concentration (IC50) at Acetylcholinesterase [3] and at Butyrylcholinesterase was greater than 100 µM each time.

As to `CN(C)c1nc(N)c(C#N)c(-c2ccccc2)c1C#N`, in the test with SH-SY5Y [2], the Activity came to 0%. In addition, the IC50 against Acetylcholinesterase [3] and against Butyrylcholinesterase was greater than 100 µM throughout.

`N#Cc1cc(C#N)c(N2CCCCC2)nc1Cl`: in the test on SH-SY5Y [2], the Activity came to 14.7%. The IC50 against Acetylcholinesterase [3] is 9.5 µM; on Butyrylcholinesterase, greater than 100 µM. In addition, at Acetylcholinesterase [5], the Ki was 17.2 µM.

`N#Cc1c(Cl)nc(N2C3CCC2CC3)c(C#N)c1-c1ccccc1`: the Activity with SH-SY5Y [2] is listed as 12.9%. Further, the IC50 at Acetylcholinesterase [3] and against Butyrylcholinesterase was greater than 100 µM each time.

For the compound `CN(C)c1nc(Cl)c(C#N)c(-c2ccccc2)c1C#N`, in the test with SH-SY5Y [2], the Activity was determined as 0%. Moreover, the values for the IC50 against Acetylcholinesterase [3] and on Butyrylcholinesterase were 10 µM and greater than 100 µM, respectively.

As to `N#Cc1c(N)nc(N2CCCCC2)c(C#N)c1-c1ccccc1`, the Activity in the test on SH-SY5Y [2] is recorded as 2.7%; in the test on SH-SY5Y [4] it was 10.7%. Also, the IC50 against Acetylcholinesterase [3] and against Butyrylcholinesterase was greater than 100 µM each time.

Consider `N#Cc1c(Cl)nc(N2CCCCC2)c(C#N)c1-c1ccccc1`, for which the Activity with SH-SY5Y [2] stood at 0%. Moreover, the IC50 on Acetylcholinesterase [3] and against Butyrylcholinesterase was greater than 100 µM in each case.

Regarding `N#Cc1cc(C#N)c(N2CCCCC2)nc1N`, the Activity is on record as 10.2% in the test on SH-SY5Y [2] and 14.8% with SH-SY5Y [4]. Moreover, the IC50 is greater than 100 µM against Acetylcholinesterase [3] and 26 µM against Butyrylcholinesterase.

For `N#Cc1c(N)nc(Sc2ccccc2)c(C#N)c1-c1ccccc1`, the Activity is 11.2% in the test with SH-SY5Y [2] and 3.84% in the test with SH-SY5Y [4]. In addition, the IC50 against Acetylcholinesterase [3] and against Butyrylcholinesterase was greater than 100 µM each time.

For `CN(C)c1nc(Cl)c(C#N)cc1C#N`, in the test on SH-SY5Y [2], the Activity is listed as 6%. The IC50 against Acetylcholinesterase [3] is 5 µM; against Butyrylcholinesterase it was greater than 100 µM.

In the case of `N#Cc1c(N)nc(NCc2ccccc2)c(C#N)c1-c1ccccc1`, in the test on SH-SY5Y [2], the Activity was found to be 10.6%. Besides, the IC50 against Acetylcholinesterase [3] and at Butyrylcholinesterase was greater than 100 µM throughout.

Take `C#CCNc1nc(N)c(C#N)cc1C#N`: the Activity with SH-SY5Y [2] is reported as 17.7%. For the same compound, the IC50 on Acetylcholinesterase [3] and against Butyrylcholinesterase was greater than 100 µM throughout.

Turning to `N#Cc1cc(C#N)c(NCCO)nc1N`, the Activity turned out to be 21.4% with SH-SY5Y [2] and 3% in the test with SH-SY5Y [4]. For the same compound, the IC50 against Acetylcholinesterase [3] and at Butyrylcholinesterase was greater than 100 µM each time.

For `N#Cc1cc(C#N)c(N2CCCC2)nc1N`, the Activity in the test on SH-SY5Y [2] is 20.1%. For the same compound, the IC50 is 3.5 µM on Acetylcholinesterase [3] and greater than 100 µM at Butyrylcholinesterase.

Take `N#Cc1cc(C#N)c(N2CCC(O)CC2)nc1N`: the Activity in the test on SH-SY5Y [2] was 3%; in the test on SH-SY5Y [4], 15.1%. For the same compound, the IC50 on Acetylcholinesterase [3] and on Butyrylcholinesterase was greater than 100 µM each time.

Turning to `N#Cc1cc(C#N)c(N2C3CCC2CC3)nc1N`, the Activity with SH-SY5Y [2] worked out at 0%. Further, the IC50 against Acetylcholinesterase [3] and on Butyrylcholinesterase was greater than 100 µM in each case.

As for `CCOc1nc(N)c(C#N)cc1C#N`, the values for the Activity with SH-SY5Y [2] and in the test on SH-SY5Y [4] were 32.9% and 10.9%, respectively. Also, the IC50 against Acetylcholinesterase [3] and against Butyrylcholinesterase was greater than 100 µM throughout.

As to `N#Cc1c(N)nc(N2C3CCC2CC3)c(C#N)c1-c1ccccc1`, in the test on SH-SY5Y [2], the Activity is on record as 0.7%. Also, the IC50 was greater than 100 µM on Acetylcholinesterase [3] and 3.8 µM against Butyrylcholinesterase.

On to `N#Cc1cc(C#N)c(N2C3CCC2CC3)nc1Cl`, for which the Activity came out at 7.5% in the test with SH-SY5Y [2] and 31.6% with SH-SY5Y [4]. For the same compound, the IC50 against Acetylcholinesterase [3] was 75 µM; against Butyrylcholinesterase it was 24 µM.

For `N#Cc1c(N)nc(S)c(C#N)c1-c1ccccc1`, the Activity with SH-SY5Y [2] was determined as 5.8%; with SH-SY5Y [4] it was 14.1%. In addition, the IC50 against Acetylcholinesterase [3] and against Butyrylcholinesterase was greater than 100 µM in each case.
